Entries after “also recorded” stand apart in the source; their conditions may differ. Where two headings read alike, the source gives them in different places.
Legend:
[1] = test system: serum insulin-like growth factor I (IGF-I); experiment: Serum IGF-I (RIA after acid-methanol extraction) after subcutaneous octreotide injection; format: in vivo, rat
[2] = parameters: method as in Bauer et al., 1982; details: ref Bauer et al., 1982; cited from earlier work
Excerpt: Int. Jnl. Experimental Diab. Res., Vol. 1, pp. 39-47 Reprints available directly from the publisher Photocopying permitted by license only (C) 2000 OPA (Overseas Publishers Association) N.V. Published by license under the Harwood Academic Publishers imprint, part of The Gordon and Breach Publishing Group. Printed in Malaysia.

[3] = test system: serum growth hormone (GH); experiment: Serum rat growth hormone (RIA) after subcutaneous octreotide injection; format: in vivo
[4] = test system: IGF-I mRNA, GH stimulated hepatocytes; details: ref Serri et al., 1992, cited from earlier work
Excerpt: (§1) Int. Jnl. Experimental Diab. […] Printed in Malaysia.

[5] = test system: human retinal endothelial cell (HREC); details: HREC stimulated by IGF-I and bFGF, ref Grant et al., 1993b, cited from earlier work
Excerpt: as §1

[6] = test system: hypoxia-induced retinal neovascularization; experiment: Neonatal rat retinopathy (ROP) model, alternating hypoxia/hyperoxia, histologic scoring of eyes; format: in vivo
Method: We evaluated its effect on retinal neovascularization in vivo, using a neonatal rat retinopathy model. Methods: We used, on alternating days, hypoxia (10% O2) and hyperoxia (50% O2) during the first 14 days of neonatal rats, to induce retinal neovascularization. […] At day 18 the eyes were evaluated for the presence of epiretinal and vitreal hemorrhage, neovascularization and epiretinal proliferation.
Int. Jnl. Experimental Diab. Res., Vol. 1, pp. 39-47 Reprints available directly from the publisher Photocopying permitted by license only (C) 2000 OPA (Overseas Publishers Association) N.V. Published by license under the Harwood Academic Publishers imprint, part of The Gordon and Breach Publishing Group. Printed in Malaysia. […] We evaluated its effect on retinal neo- vascularization in vivo, using a neonatal rat retino- pathy model. Methods: We used, on alternating days, hypoxia (10%O2) and hyperoxia (50%02) during the first 14 days of neonatal rats, to induce retinal neovascu- larization. […] At day 18 the eyes were evaluated for the presence of epiretinal and vitreal hemorrhage, neovasculariza- tion and epiretinal proliferation. […] Keywords: Retinopathy of prematurity, angiogenesis, insulin- like growth factor, growth hormone, neovascularization INTRODUCTION Retinal neovascularization is a common feature of several eye diseases characterized by retinal hypoxia, such as proliferative diabetic retino- pathy (PDR) and retinopathy of prematurity (ROP). While the underlying pathology may be different in these conditions, the neovascular pro- cess itself leads to destruction of normal retina and eventually causes blindness. *Corresponding author. Department of Ophthalmology, Hadassah University Hospital, P. O. Box 12000, Jerusalem 91120, Israel. Tel.: +972-2-677 6927, Fax: +972-2-643 4434, e-maih edward@md2.huji.ac.il 39 40 E. AVERBUKH et al. Growth hormone (GH) and insulin-like growth factor I (IGF-I) have been implicated in the pathogenesis of PDR (Lundbaek et al., 1970; Dills et al., 1991). […] High vitre- ous levels of IGF-I and IGF binding proteins (IGFBPs) were found in patients with neovas- cular eye disease related to diabetes and to other ischemic retinal conditions (Meyer-Schwickerath et al., 1993). In addition, a recent study demon- strated the essential role of GH and IGF-I in the development of retinal neovascularization in the ROP model in mice (Smith et al., 1997). Decades ago, before the advent of lasers, elimination of GH production by pituitary ablation was an accepted therapy for PDR (Bradley, Rees and Fager, 1965). […] METHODS Animals Fifty-six neonatal Sabra rats (provided by the Harlan Laboratories, Jerusalem, Israel) were divided into experimental groups of eight to ten animals from mixed litters, not divided ac- cording to gender. At the age of one day the group with the lactating mother were placed in an incubator with a controlled oxygen con- centration. […] All the animals were maintained and treated in ac- cordance with the Association for Research in Vision and Ophthalmology statement on the use of animals in ophthalmic and vision re- search. Retinal neovascularization was induced by alternating oxygen concentrations as pre- viously described (Reynaud and Dorey, 1994; Penn, Tolman and Lowery, 1993). Briefly, the animals were exposed on alternating days to hypoxia (10% O2-24h) and hyperoxia (50% O2-24h) during their first 14 days, followed by four days in room air. Hypoxia was produced by mixing air with nitrogen, and hyperoxia by mixing air with oxygen. A minimal flow of two liters per minute was maintained. […] At day 18 the rats were anesthetized with ether and sacrificed. The eyes were enu- cleated and placed in formaldehyde. […] These areas are prone to ischemia when the oxygen level is lowered.

[7] = Serum octreotide level (RIA) after subcutaneous injection in neonatal rats; details: Sabra, rat, sc
[8] = stated for both the octreotide-treated and the control groups

C[C@@H](O)[C@@H]1NC(=O)[C@H](CCCCN)NC(=O)[C@@H](Cc2c[nH]c3ccccc23)NC(=O)[C@H](Cc2ccccc2)NC(=O)[C@@H](NC(=O)[C@H](N)Cc2ccccc2)CSSC[C@@H](C(=O)N[C@H](CO)[C@@H](C)O)NC1=O [octreotide]
Serum IGF-I level vs control group ([1]; 2 hours after injection): unchanged; also recorded: similar | Elevation of serum IGF-I level vs control group ([1]; 9 hours after injection, p 0.06): 19% | Elevation of serum IGF-I level vs control group ([1]; 14 hours after injection, p = 0.02): 26% | Plasma half-life [2]: 1.5 h | Serum GH level vs control group ([3]; 9 and 14 hours after injection): returned to baseline; also recorded: comparable | Decrease of serum GH level compared with saline injected animals ([3]; 2 hours after injection, p = 0.002): 40% | IGF-I mRNA abundance in cultured GH stimulated hepatocytes ([4]; high concentrations of octreotide (30 and 300 μg/l)): no effect | IGF-I mRNA levels in cultured GH stimulated hepatocytes ([4]; low octreotide concentrations (0.3 and 3 μg/l)): significantly reduced | Inhibition of [3H]thymidine incorporation ([5]; octreotide level 1.6 μg/l): 15% | Inhibition of [3H]thymidine incorporation ([5]; octreotide level 16 μg/l): 35% | Inhibition of [3H]thymidine incorporation ([5]; octreotide level 164 μg/l): 60% | Effect of injections on retinal pathology ([6]; 0.7 μg/g BW s.c. twice daily, Mann-Whitney Rank Sum Test vs saline): no statistically significant effect | Eyes in which NV was found ([6]; octreotide-treated eyes, day 18 (control 27%)): 35% | Eyes affected by any of epiretinal and vitreal hemorrhages [6, 8]: ~70% | Eyes affected by epiretinal or by vitreal hemorrhages, each one of them [6, 8]: approximately 45% | Eyes affected by PVR ([6]; stated for each group): less than 40% | Retinal neovascularization ([6]; twice-daily injections, neonatal rat ROP model): not inhibited | half-life ([7]; 0.7 μg/g BW): 1.63 h | level at 9 h ([7]; 20 ug): 26.4 ng/mL | level at 14 h ([7]; 20 ug): 3.2 ng/mL

From article PMC2477751 (International journal of experimental diabetes research, 2000)
